In patent publication US6239132A, “Thrombin inhibitors” (Merck & Co., Inc., priority 2000, dated 2001):

molecular target: human α-thrombin (Homo sapiens, UniProt P00734); test: In vitro assay for determining proteinase inhibition: human α-thrombin; format: biochemical; details: 25° C., 0.05M TRIS buffer pH 7.4, 0.15M NaCl, 0.1% PEG; sar-PR-pna (or Z-GPR-afc for potent inhibitors); read-out: Inhibitory activity (Ki)
Method: Examples of this group are listed below in Table 1. […] Values are as determined according to the in vitro assay described later in the specification.
In Vitro Assay for Determining Proteinase Inhibition
Assays of human α-thrombin and human trypsin were performed by the methods substantially as described in Thrombosis Research, Issue No. 70, page 173 (1993) by S. D. Lewis et al.
The assays were carried out at 25° C. in 0.05M TRIS buffer pH 7.4, 0.15M NaCl, 0.1% PEG. Trypsin assays also contained 1 mM CaCl2.
Concentrations of stock solutions of Z-GPR-afc were determined from measurements of absorbance at 380 nm of the 7-amino-4-trifluoromethyl coumarin produced upon complete hydrolysis of an aliquot of the stock solution by thrombin.
Times required to achieve equilibration between enzyme and inhibitor were determined in control experiments. Initial velocities of product formation in the absence (Vo) or presence of inhibitor (Vi) were measured. Assuming competitive inhibition, and that unity is negligible compared Km /[S], […] (where [S], [I], and e respectively represent the total concentrations, of substrate, inhibitor and enzyme), the equilibrium constant (Ki) for dissociation of the inhibitor from the enzyme can be obtained from the dependence of Vo /Vi on [I] shown in equation 1: […]

Ki, < 100 nM:
Cc1cc2c(c(=O)n1CC(=O)NCc1cc3cc[nH]c3cn1)NC(=O)OC2(C)C
Cc1cc2c(c(=O)n1CC(=O)NCc1cc3cc[nH]c3cn1)NC(=O)OC2(CC1CC1)CC1CC1
CCC1(CC)OC(=O)Nc2c1cc(C)n(CC(=O)NCc1ccc(N)nc1C)c2=O
Cc1cc2c(c(=O)n1CC(=O)NCc1cccc(Cl)c1)NC(=O)OC2(C(C)C)C(C)C
